{"source": "patent EP4748844A1", "about": "“AZETIDINE COMPOUND AND MEDICAL USE THEREOF” (SHANGHAI INSTITUTE OF MATERIA MEDICA, CHINESE ACADEMY OF …, priority 2023, dated 2025)", "key": {"[1]": {"tested_on": "STING agonist (MSA-2) stimulation", "assay": "In vivo anti-inflammatory effect of oral administration on STING agonist (MSA-2) stimulation", "parameters": "species or system C57BL6 female mice", "conditions": "I-77 20mpk", "description": "6-8 week C57BL6 female mice, purchased from Shanghai Jihui Experimental Animal Breeding Co., Ltd. Compound preparation method: 2 mg of I-77 powder was taken, 12 µL of PEG400 was added thereto and ultrasonically dissolved, and then 8 µL of Tween 80 was added and ultrasonically mixed to prepare a 100 mg/mL stock solution.\nExperimental grouping: The control group was administered vehicle solvent; The model group was administered MSA-2 (10mpk, dissolved in 40% PEG400); The treatment group (I-77) was administered MSA-2 and I-77 (20mpk, PO). A final concentration of […] of I-77 solution was prepared by dilution with double distilled water, and 200 µL of the solution was taken and administered intragastrically into the mice in treatment group; The control group and MSA-2 group were administered intragastrically with 200 µL of vehicle solvent diluted 10 times. […] After high-speed centrifugation of blood samples, the plasma was taken and diluted by 2 times, and the levels of CXCL10 and IL6 in the plasma were detected using the Lianke ELISA kit. RNA was extracted from heart and kidney samples, and reversed to cDNA, and inflammation related cytokines (ISG15, ISG56, IL6, and IP10) in tissues were detected using qPCR technology. […]"}, "[2]": {"tested_on": "Trex1-D18N autoimmune mouse model", "assay": "Inflammatory inhibitory effect of oral administration in Trex1-D18N autoimmune mouse model", "type": "in vivo", "conditions": "I-77 20mpk, daily for one month, qPCR of Cxcl10/IP10, ISG15, ISG56, IFN-β, IFN-γ, STAT2 in heart, Figure 10", "description": "The model mice were purchased from GEMPHARMATECH CO., LTD., and the wild-type C57/BL6 mice were also purchased from GEMPHARMATECH CO., LTD.. Compound preparation method: 2 mg of I-77 powder was taken, 12 µL of PEG400 was added thereto and ultrasonically dissolved, and then 8 µL of Tween 80 was added and ultrasonically mixed to prepare a 100 mg/mL stock solution.\nExperimental grouping: Wild type mice control group (Control) was administered vehicle solvent; The model mice group (Model) was administered vehicle solvent; The treatment group (I-77) was administered I-77 (20mpk, PO) to the model mice. The mice in the I-77 group were intragastrically administered 200 µL of I-77 solution at a final concentration of […] daily, which was prepared by dilution with double-distilled water; The same dose of vehicle solvent was administered to the remaining groups continuously for one month. The heart was collected from the experimental endpoint samples. RNA extraction was performed on heart samples, and the RNA was reversed to cDNA. Changes in gene expression of inflammation related cytokines (Cxcl10/IP10, ISG15, ISG56, IFN-β, IFN-γ, and STAT2) in the tissues were detected using qPCR technology. Statistical method: One way ANOVA, *P<0.05, **P<0.01, ***P<0.001, ***P<0.0001."}, "[3]": {"tested_on": "ISG gene expression induced by MSA-2 in human THP1-Blue-ISG cells", "assay": "Inhibition of MSA-2-induced ISG gene expression in human THP1-Blue-ISG cells (Quanti-Blue, OD650)", "type": "cell-based", "conditions": "STING agonist MSA-2 10 µM, incubated for 24 hours", "description": "(§1) 10 µL of compound diluted with PBS/physiological saline was added to each well of a 96 well cell culture plate. The STING agonist was MSA-2, which was added to the counted cell suspension at a final concentration of 10 µM. For the control group without compounds, 10 µL of PBS/physiological saline containing 2% DMSO was added. 3 replicate wells were set in each group. THP1-Blue-ISG cells were counted and adjusted to a cell concentration of 4× 10^5/mL, and 190 µL of cells containing STING agonist were added to each well for incubation. Therefore, the final volume of each test well was 200 µL, the content of DMSO was 0.1%, and the final concentration of the compound tested was 10/3.3/1.1/0.4/0.13/0.04/0.013/0.004 µM, incubated for 24 hours. In addition, 190 µL of cells without STING agonist and 10 µL of physiological saline containing 2% DMSO were added to the blank group. 3 replicate wells were set in each group.\nAfter 24 hours, 20 µL of culture medium was taken from each well and transferred to a new 96 well plate. 180 µL of chromogenic solution Quanti-Blue was added. The plate was placed in a 37 °C incubator. After 2 hours, the OD650 values were measured.\nResult analysis: Inhibition rate (%) = (Con(OD650)−Treated(OD650))/Con(OD650) × 100% [formula]\n(§2) The IC50 calculation of inhibitors was implemented using the Graphpad Prism 8 software's calculation method log (inhibitor) vs. response - Variable slope (four parameters), with a constrain interval of 0-100."}, "[4]": {"tested_on": "ISG gene expression induced by MSA-2 in human THP1-Dual cells", "assay": "Inhibition of MSA-2-induced ISG gene expression in human THP1-Dual cells (QUANTI-Luc)", "type": "cell-based", "conditions": "STING agonist MSA-2 10 µM, incubated for 24 hours", "description": "as §1, with “THP1-Dual” for “THP1-Blue-ISG”, “4×10^5/mL,” for “4× 10^5/mL,”\nAfter 24 hours, 20 µL of culture medium for THP1-Dual cells was taken from each well and transferred to a new 96 well plate with photopermeable bottom. 50 µL of the luciferase detection reagent QUANTI-Luc™ was added, and the […] was immediately measured (avoid light). Result analysis:Inhibition rate (%) = (Con(Lum)−Treated(Lum))/Con(Lum) × 100% [formula]\nas §2"}}, "data": [{"smiles": "CC1(C)C(=O)N(Cc2ccsc2)c2cc(C(=O)Nc3c[nH]c4ccccc34)ccc21", "note": "[Example I-77, N-(1H-indol-3-yl)-3,3-dimethyl-2-oxo-1-(thien-3-ylmethyl)indolin-6-carboxamide]", "values": [{"measurement": "levels of IL6 and IP10 in plasma induced by MSA-2 injection", "setting": "[1]; 1 hour before MSA-2 (10mpk), plasma ELISA after 4 hours, Figure 4", "result": "significantly reduced"}, {"measurement": "inflammatory response of the heart and kidneys induced by MSA-2 stimulation", "setting": "[1]; qPCR of ISG15, ISG56, IL6, IP10 in tissues, Figures 5, 6", "result": "inhibited the inflammatory response"}, {"measurement": "cardiac inflammation related cytokine expression in the Trex1-D18N model", "setting": "[2]", "result": "significantly inhibit the upregulation"}, {"measurement": "IC50", "setting": "[3]", "result": 0.162, "unit": "µM"}, {"measurement": "IC50", "setting": "[4]", "result": 0.00063, "unit": "µM"}]}]}
